From ChEMBL document CHEMBL5360674, “Discovery of Naphthol Tetramers from Endolichenic Fungus Daldinia childiae 047219 Based on MS/MS Molecular Networking” (2023)

Key:
RAW264.7 [1] = assay: Antiinflammatory activity in mouse RAW264.7 cells assessed as reduction in LPS-induced NO production at 10 uM preincubated for 2 hrs followed by LPS stimulation and measured after 24 hrs by Griess reagent-based assay relative to control; assay type: functional; set-up: scale not given: the % may be the effect or the level left; conditions: time 26 hrs
RAW264.7 [2] = assay: Antiinflammatory activity in mouse RAW264.7 cells assessed as reduction in LPS-induced NO production preincubated for 2 hrs followed by LPS stimulation and measured after 24 hrs by Griess reagent-based assay; assay type: functional, cell-based; conditions: dose 5-50 µM, time 26.0 hrs
RAW264.7 [3] = assay: Antiinflammatory activity in mouse RAW264.7 cells assessed as reduction in LPS-induced NO production at 25 to 50 uM preincubated for 2 hrs followed by LPS stimulation and measured after 24 hrs by Griess reagent-based assay relative to control; assay type: functional; set-up: scale not given: the % may be the effect or the level left; conditions: dose 25-50 µM, time 26 hrs

SMILES | Activity (RAW264.7 [1]) | Activity (RAW264.7 [2]) | Activity (RAW264.7 [3])
C[C@@H]1C[C@H]2[C@@H]3CCC4=CC(=O)C=C[C@]4(C)[C@@]3(F)[C@@H](O)C[C@]2(C)[C@@]1(O)C(=O)CO [DEXAMETHASONE] | 50% | – | –
COc1cccc2ccc(-c3ccc4cccc(OC)c4c3O)c(O)c12 | – | Dose-Dependent Effect | 50%
COc1cccc2ccc(-c3cc(-c4ccc(O)c5c(OC)cccc45)c4cccc(OC)c4c3O)c(O)c12 | – | Dose-Dependent Effect | 50%
COc1cccc2ccc(-c3ccc(O)c4c(OC)cccc34)c(O)c12 | – | Dose-Dependent Effect | 50%
